# Test results published in US7554012B2, “Plants and plant cells exhibiting resistance to AMPA, and methods for making the same” (priority 1998, dated 2009).
# Several values for one entry are separate records, joined by “and”; a condition that tells them apart may be missing. Identical values can stand only once.
# How the values were obtained:
# E. coli JM101 = assay: Cell growth in MOPS medium with AMPA; format: cell-based; set-up: key: — indicates no measurable growth; details: 0.2 mM AMPA, growth period 54 hrs
# Description: The phn operon is induced when E. coli is grown in media lacking or limited in a phosphate source. Therefore, E. coli GB993 was compared to the parental JM101 strain when grown in MOPS minimal media. GB993 and its mpu− parent strain, JM101, were grown under identical conditions, varying only the amount of phosphate available or supplemented with AMPA. 50 ml cultures were grown in duplicate in 250 ml sidearm-Erlenmeyer flasks with continuous shaking at 37° C. in MOPS medium (5 mls of 10×MOPS salts, 0.5 ml 1 mg/ml thiamin, 0.5 ml 20% glucose, to 50 mls with dH2O) containing 0.1 or 5 mM phosphate, or 0.1 mM phosphate supplemented with approximately 0.2 mM AMPA, pH 7.0. The cultures were generally grown to about 220 Klett units and the cells were pelleted by centrifugation, resuspended in 1.5 mls of 10 mM Tris/1 mM DTT, and lysed with two passes through a French press at […]. Lysates were centrifuged to remove debris and the supernatant passed through a G-50 column equilibrated with 50 mM Tris pH 7.0.
# Wheat immature embryos = assay: Wheat embryo germination assay; format: in vivo; details: for Germinating root length / Germinating shoot length: ten days
# Description: Wheat immature embryos were exposed to different concentrations of AMPA and N-acetyl-AMPA in a wheat embryo germination assay. MMSO base media was prepared containing 40 grams per liter maltose, 2 grams per liter GELRITE™, MS salts, and vitamins. Salts, vitamins, and maltose were dissolved in 3500 ml water and the pH was adjusted to 5.8. 500 ml was dispensed into a separate bottle along with 1 gram of GELRITE™ and autoclaved for 17 minutes. After the medium had cooled to about 45° C., AMPA or N-acetyl-AMPA was added to a defined concentration. The mixture was poured into six square Sundae cups under sterile conditions and allowed to solidify.
# Immature wheat embryos were isolated from twenty day old seedlings (after anther formation) and inoculated into each MMSO media. Each Sundae cup contained nine immature embryo's. Three separate plates were used for each concentration of AMPA (0, 0.1, 0.15, 0.2, 0.25, 0.3, and 1.0 mM) or N-acetyl-AMPA (0, 0.1, 0.3, 1.0, and 3.0 mM). Sundae cups were incubated for ten days and the length of roots and shoots were determined and compared.
# [1] = tested on: recombinant cotton line 4268 (GOX/PhnO); assay: [^14C]-glyphosate metabolism in cotton line 4268; format: in vivo, cotton (Gossypium hirsutum L.); details: GOX/PhnO Plants
# Description: The metabolism of [^14C]-glyphosate in recombinant cotton lines 4268 (GOX/PhnO) and 3753 (EPSPS/GOX) was also studied. Plants in this study were treated as indicated above for cotton line 4416, by applying droplets of ROUNDUP ULTRA fortified with [^14C]-glyphosate to a single leaf on each plant at the three to four leaf stage. Treated leaves were harvested and rinsed with water, then ground and extracted, and extracts were analyzed by HPLC as described above for the presence of [^14C]-glyphosate, [^14C]-AMPA, and N-acetyl-[^14C]-AMPA. New growth, including the meristem and new leaves that emerged following application were also extracted and analyzed.
compound,measurement,setting,value
"NCP(=O)(O)O [AMPA, N-aminomethyl phosphonic acid]",Harvest Density,E. coli JM101,—
same,Germinating root length,Wheat immature embryos; 0.10 mM,8.0 ± 2.0 cm
same,Germinating shoot length,Wheat immature embryos; 0.10 mM,11.7 ± 2.5 cm
same,Germinating root length,Wheat immature embryos; 0.15 mM,6.3 ± 1.7 cm
same,Germinating shoot length,Wheat immature embryos; 0.15 mM,11.3 ± 2.1 cm
same,Germinating root length,Wheat immature embryos; 0.20 mM,4.6 ± 2.1 cm
same,Germinating shoot length,Wheat immature embryos; 0.20 mM,9.2 ± 1.8 cm
same,Germinating root length,Wheat immature embryos; 0.25 mM,3.1 ± 1.6 cm
same,Germinating shoot length,Wheat immature embryos; 0.25 mM,8.5 ± 1.8 cm
same,Germinating root length,Wheat immature embryos; 0.30 mM,2.6 ± 1.6 cm
same,Germinating shoot length,Wheat immature embryos; 0.30 mM,6.6 ± 1.8 cm
same,germination of immature embryos,Wheat immature embryos; 1.00 mM,eliminated the germination
same,Germinating root length,Wheat immature embryos; 1.00 mM,0.4 ± 0.1 cm
same,Germinating shoot length,Wheat immature embryos; 1.00 mM,0.9 ± 0.1 cm
same,concentrations not substantially inhibitory to growth and elongation of immature embryos,Wheat immature embryos; in vivo,under 0.2 mM
same,concentrations severely inhibitory to both shoot and root elongation,Wheat immature embryos; in vivo,above 0.2 mM
N-phosphono-methyl-glycine [Glyphosate],% [^14C] metabolite in Glyphosate Treated Leaf Extract: AMPA,[1]; listed as [^14C]-Glyphosate,3.2% and 5.7% and 3.0% and 4.8%
same,% [^14C] metabolite in Glyphosate Treated Leaf Extract: Glyphosate,[1]; listed as [^14C]-Glyphosate,54.4% and 58.3% and 76.7% and 63.9%
same,% [^14C] metabolite in New Growth Extract: AMPA,[1]; listed as [^14C]-Glyphosate,1.2% and 1.0% and 1.5%
same,% [^14C] metabolite in New Growth Extract: Glyphosate,[1]; listed as [^14C]-Glyphosate,0.8% and 1.1% and 3.4%
same,% [^14C] metabolite in New Growth Extract: N-Acetyl-AMPA,[1]; listed as [^14C]-Glyphosate,94.7% and 91.0% and 89.9% and 91.5%
same,% [^14C] metabolite in New Growth Extract: N-Acetyl-AMPA,[1]; listed as [^14C]-glyphosate,90-95%
